The numbers were not newly measured in publication PMC3983144 (Bioconjugate chemistry, 2014), which cites them from elsewhere.

By IC50 is commonly meant the point on the concentration scale where inhibition reaches its midpoint.

The subject of the data set is MC1R. The note with it: B16F1 melanoma cells.

Square brackets hold non-standard residues; d marks the D form. Nle = CCCC[C@H](N)C(=O)O

Consider Ac-[Nle]DH[dF]RWGK-NH2 [NAPamide], for which the IC50 is 0.27 nM.
